The subject of one test is Bacillus subtilis 168. As to the kind of experiment: Test-tube based antimicrobial assay of purified AMP-SELP fusions. Type of test: cell-based. As to conditions: 1.25 mg/ml in water, equal volume of 1:500 diluted culture, 37° C., after 4 hours. The procedure: (§1) Culture supernatant samples from post-induction time-points from a fermentation of Cecropin A-Melettin (CAM) fused to the N-terminus of SELP47K were tested for growth inhibition of E. coli and B. subtilis. […] Purified CAM-SELP47K (SEQ. ID. NO.32) and MBI-SELP47K (SEQ. ID. NO. 33) biomaterials were similarly tested for their antimicrobial activity. Lyophilized material was dissolved in water at 1.25 mg/ml and used in a test-tube based assay performed as follows: Bacillus subtilis 168 and Escherichia coli MG1655 were each grown from single colonies in 5 ml volumes of LB in test tubes, 37° C., 250 rpm, 16 hrs. Cultures were diluted 1:500 in Terrific broth. Equal volumes of diluted culture and purified AMP-SELP fusions described above were combined in sterile glass test-tubes (1 ml total volume in 5 ml tubes), in duplicate, and incubated at 37° C., 250 rpm. Purified SELP47K was used as a negative control.

Another test deals with Escherichia coli MG1655. Described as above. Type of test: cell-based. To be noted: 1.25 mg/ml in water, equal volume of 1:500 diluted culture, 37° C., after 4 hours. The procedure:
as §1

Consider “SELP47K: genetically engineered silk-elastin polymer, head-[(GAGAGS)2(GVGVP)3GKGVP(GVGP)4(GAGAGS)2]13-tail (SEQ ID NO. 19), 886 amino acids”, for which the growth in tubes entry with Bacillus subtilis 168 and in the test on Escherichia coli MG1655 was “growth was clearly visible” in each case.

These data come from patent US7691806B2, “Repeat sequence protein polymer active agent congjugates, methods and uses” (priority 2003, dated 2010).
